In patent publication US10700298B2, “OLED display panel and electronic device comprising the same” (SHANGHAI TIANMA AM-OLED CO., LTD., priority 2016, dated 2020):
Converted amounts (≈) assume the structure as drawn.

Assay: Solubility of the hole transporting material in NMP
Type: physicochemical
Details: N-methylpyrrolidone

| Compound | solubility in NMP |
| --- | --- |
| c1ccc(-c2ccc(N(c3ccc(-c4ccccc4)cc3)c3ccc(-c4ccc(N(c5ccc(-c6ccccc6)cc5)c5ccc(-c6ccccc6)cc5)cc4)cc3)cc2)cc1 [Comparative Example 1, reference compound] | 1.2 mg/mL (≈ 1.51 mM) |
| c1ccc(-c2ccc(N(c3ccc(-c4ccccc4)cc3)c3ccc(-c4ccc(N(c5ccc(-c6ccccc6)cc5)c5ccc(-c6ccccc6)cc5)c5c4CCCC5)cc3)cc2)cc1 [Comparative Example 3, reference compound] | 2.5 mg/mL (≈ 2.95 mM) |
| Cc1cccc(-c2ccc(N(c3ccc(-c4cccc(C)c4)cc3)c3ccc(-c4cc(C)c(N(c5ccc(-c6cccc(C)c6)cc5)c5ccc(-c6cccc(C)c6)cc5)c(C)c4)cc3)cc2)c1 [Example 1] | 15 mg/mL (≈ 17.1 mM) |
| Cc1cccc(-c2ccc(N(c3ccc(-c4cc(C)c(N(c5ccc(-c6cccc(C)c6)c(C)c5)c5ccc(-c6cccc(C)c6)c(C)c5)c(C)c4)cc3)c3ccc(-c4cccc(C)c4)c(C)c3)cc2C)c1 [Example 2] | 25 mg/mL (≈ 26.8 mM) |
| CC(C)c1ccc(-c2ccc(N(c3ccc(-c4ccccc4)cc3)c3ccc(-c4ccc(N(c5ccc(-c6ccccc6)cc5)c5ccc(-c6ccc(C(C)C)cc6)cc5)c(C(C)C)c4)cc3)cc2)cc1 [Example 3] | 12 mg/mL (≈ 13.1 mM) |
| Cc1cc(N(c2ccc(-c3ccccc3)cc2)c2ccc(-c3ccc(C(C)C)cc3)cc2)ccc1-c1ccc(N(c2ccc(-c3ccccc3)cc2)c2ccc(-c3ccc(C(C)C)cc3)cc2)cc1 [Example 4] | 12 mg/mL (≈ 13.5 mM) |
| Cc1ccc(-c2ccc(N(c3ccc(-c4cccc(C)c4)cc3)c3ccc(-c4ccc(N(c5ccc(-c6ccccc6)cc5)c5ccc(-c6ccc(C)cc6)cc5)c5c4CCCC5)cc3)cc2)cc1 [Example 9] | 35 mg/mL (≈ 39.4 mM) |
| Cc1cccc(-c2ccc(N(c3ccc(-c4cccc5c4CCCC5)cc3)c3ccc(-c4ccc(N(c5ccc(-c6cccc(C)c6)cc5)c5ccc(-c6cccc7c6CCCC7)cc5)c5c4CCCC5)cc3)cc2)c1 [Example 10] | 19 mg/mL (≈ 19.3 mM) |
| Cc1cc(N(c2ccc(-c3ccccc3)cc2)c2ccc(-c3cccc4c3CCCC4)cc2)ccc1-c1ccc(N(c2ccc(-c3ccccc3)cc2)c2ccc(-c3cccc4c3CCCC4)cc2)cc1 [Example 11] | 15 mg/mL (≈ 16.4 mM) |
| Cc1ccccc1-c1ccc(N(c2ccc(-c3ccccc3)cc2)c2ccc(-c3ccc(N(c4ccc(-c5ccccc5)cc4)c4ccc(-c5ccccc5C)c5c4CCCC5)c4c3CCCC4)cc2)c2c1CCCC2 [Example 12] | 21 mg/mL (≈ 21.4 mM) |

Assay: not given
Details: in words; material disclosed in CN103108859; cited from earlier work

| Compound | solubility |
| --- | --- |
| CC1(C)c2ccccc2-c2ccc(N(c3ccc4c(c3)C3(c5ccccc5-c5ccccc53)c3ccccc3-4)c3ccccc3-c3ccccc3)cc21 | good |
